Legend:
Experiment in all cases: radiometric filter-binding kinase assay, Kinase HotSpot
Conditions in all cases: compound 0.5 µM; ATP 10 µM
MAP3K14 (human) = MAP3K14 (human) (UniProt Q99558)
WNK2 (human) = WNK2 (human) (UniProt Q9Y3S1)
HIPK4 (human) = HIPK4 (human) (UniProt Q8NE63)
CDK9 CCNK (human) = CDK9 CCNK (human) (UniProt O75909+P50750)
AURKB (human) = AURKB (human) (UniProt Q96GD4)
TEK (human) = TEK (human) (UniProt Q02763)
STK33 (human) = STK33 (human) (UniProt Q9BYT3)
STK4 (human) = STK4 (human) (UniProt Q13043)
FLT3 (human) = FLT3 (human) (UniProt P36888)
PLK2 (human) = PLK2 (human) (UniProt Q9NYY3)
TXK (human) = TXK (human) (UniProt P42681)
HIPK2 (human) = HIPK2 (human) (UniProt Q9H2X6)
NTRK2 (human) = NTRK2 (human) (UniProt Q16620)
DAPK1 (human) = DAPK1 (human) (UniProt P53355)
FLT1 (human) = FLT1 (human) (UniProt P17948)
GSG2 (human) = GSG2 (human) (UniProt Q8TF76)
MAPKAPK2 (human) = MAPKAPK2 (human) (UniProt P49137)
CDK9 CCNT1 (human) = CDK9 CCNT1 (human) (UniProt P50750+O60563)
NLK (human) = NLK (human) (UniProt Q9UBE8)
SRPK2 (human) = SRPK2 (human) (UniProt P78362)
SGK3 (human) = SGK3 (human) (UniProt Q96BR1)
CSNK1E (human) = CSNK1E (human) (UniProt P49674)
AXL (human) = AXL (human) (UniProt P30530)
PAK1 (human) = PAK1 (human) (UniProt Q13153)
PTK2B (human) = PTK2B (human) (UniProt Q14289)
SYK (human) = SYK (human) (UniProt P43405)
CAMK1G (human) = CAMK1G (human) (UniProt Q96NX5)
ZAP70 (human) = ZAP70 (human) (UniProt P43403)
CLK1 (human) = CLK1 (human) (UniProt P49759)
MAP3K5 (human) = MAP3K5 (human) (UniProt Q99683)
TAOK3 (human) = TAOK3 (human) (UniProt Q9H2K8)
[1] = target: TYK2 JH1 catalytic (human) (UniProt P29597)
PLK3 (human) = PLK3 (human) (UniProt Q9H4B4)
MAP3K3 (human) = MAP3K3 (human) (UniProt Q99759)
YES1 (human) = YES1 (human) (UniProt P07947)
IGF1R (human) = IGF1R (human) (UniProt P08069)
MAP3K9 (human) = MAP3K9 (human) (UniProt P80192)
PRKCE (human) = PRKCE (human) (UniProt Q02156)
ITK (human) = ITK (human) (UniProt Q08881)
RPS6KB2 (human) = RPS6KB2 (human) (UniProt Q9UBS0)

Chain of FLT1 (human) (P17948 whole entry, looked up): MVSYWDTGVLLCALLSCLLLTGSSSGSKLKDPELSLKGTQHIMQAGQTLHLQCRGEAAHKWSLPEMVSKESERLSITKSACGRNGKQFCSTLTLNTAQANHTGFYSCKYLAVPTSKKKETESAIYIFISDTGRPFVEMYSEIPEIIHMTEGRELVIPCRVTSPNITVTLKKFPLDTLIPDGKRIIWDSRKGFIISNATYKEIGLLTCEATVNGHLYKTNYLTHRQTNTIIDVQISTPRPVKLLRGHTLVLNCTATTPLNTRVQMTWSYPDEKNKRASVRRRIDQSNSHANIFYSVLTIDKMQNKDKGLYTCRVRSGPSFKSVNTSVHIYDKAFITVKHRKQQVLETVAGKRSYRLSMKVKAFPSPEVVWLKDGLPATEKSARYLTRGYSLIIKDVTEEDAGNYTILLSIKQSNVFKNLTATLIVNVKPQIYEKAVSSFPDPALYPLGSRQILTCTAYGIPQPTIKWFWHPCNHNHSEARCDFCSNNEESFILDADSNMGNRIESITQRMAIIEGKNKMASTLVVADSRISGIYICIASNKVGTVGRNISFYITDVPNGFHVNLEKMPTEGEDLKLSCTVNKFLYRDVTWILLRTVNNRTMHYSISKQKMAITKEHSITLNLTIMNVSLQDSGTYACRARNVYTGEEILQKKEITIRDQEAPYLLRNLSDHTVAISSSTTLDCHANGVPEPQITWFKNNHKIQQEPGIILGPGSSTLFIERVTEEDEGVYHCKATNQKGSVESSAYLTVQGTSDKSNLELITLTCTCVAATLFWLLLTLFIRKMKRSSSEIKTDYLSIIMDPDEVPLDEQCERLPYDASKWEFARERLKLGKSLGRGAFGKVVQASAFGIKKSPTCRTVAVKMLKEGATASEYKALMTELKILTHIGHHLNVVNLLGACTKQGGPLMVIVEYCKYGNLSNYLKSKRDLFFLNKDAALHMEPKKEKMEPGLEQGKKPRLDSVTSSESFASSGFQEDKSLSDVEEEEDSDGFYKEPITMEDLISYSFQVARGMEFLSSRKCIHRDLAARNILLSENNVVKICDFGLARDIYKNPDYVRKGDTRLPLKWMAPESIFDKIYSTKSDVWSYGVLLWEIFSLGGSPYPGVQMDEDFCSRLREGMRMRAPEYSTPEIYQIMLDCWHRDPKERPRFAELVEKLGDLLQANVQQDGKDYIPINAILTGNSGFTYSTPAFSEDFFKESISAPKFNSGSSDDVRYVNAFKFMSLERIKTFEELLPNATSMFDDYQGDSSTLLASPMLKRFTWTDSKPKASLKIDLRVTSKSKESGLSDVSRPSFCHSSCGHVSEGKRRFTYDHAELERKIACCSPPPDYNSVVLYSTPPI
Chain of CDK9 CCNK (human) (O75909 whole entry, looked up): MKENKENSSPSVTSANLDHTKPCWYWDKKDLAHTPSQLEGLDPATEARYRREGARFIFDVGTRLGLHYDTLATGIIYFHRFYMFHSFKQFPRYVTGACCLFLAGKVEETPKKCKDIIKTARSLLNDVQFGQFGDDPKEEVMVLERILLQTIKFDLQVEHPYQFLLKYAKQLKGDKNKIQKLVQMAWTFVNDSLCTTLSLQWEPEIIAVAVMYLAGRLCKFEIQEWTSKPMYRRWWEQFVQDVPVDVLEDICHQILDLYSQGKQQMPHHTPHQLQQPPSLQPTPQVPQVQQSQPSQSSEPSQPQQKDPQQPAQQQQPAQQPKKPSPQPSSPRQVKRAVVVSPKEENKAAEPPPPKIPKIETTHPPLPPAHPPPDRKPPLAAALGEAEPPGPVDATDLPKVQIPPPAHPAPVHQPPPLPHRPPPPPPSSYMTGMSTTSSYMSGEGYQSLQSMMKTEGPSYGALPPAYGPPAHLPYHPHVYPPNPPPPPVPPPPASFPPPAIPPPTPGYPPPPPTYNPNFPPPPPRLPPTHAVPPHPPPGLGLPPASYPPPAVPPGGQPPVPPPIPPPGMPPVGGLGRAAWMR
Chain of CDK9 CCNK (human) (P50750 whole entry, looked up): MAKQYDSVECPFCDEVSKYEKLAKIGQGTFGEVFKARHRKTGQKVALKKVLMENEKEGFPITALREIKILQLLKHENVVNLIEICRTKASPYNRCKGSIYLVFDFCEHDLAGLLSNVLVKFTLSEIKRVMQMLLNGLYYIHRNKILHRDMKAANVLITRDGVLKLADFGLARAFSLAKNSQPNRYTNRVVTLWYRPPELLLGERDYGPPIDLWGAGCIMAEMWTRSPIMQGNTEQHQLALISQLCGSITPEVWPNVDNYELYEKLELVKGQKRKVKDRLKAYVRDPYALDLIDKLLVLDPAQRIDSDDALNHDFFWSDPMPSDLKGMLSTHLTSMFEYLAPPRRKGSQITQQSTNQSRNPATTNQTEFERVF
Chain of CLK1 (human) (P49759 whole entry, looked up): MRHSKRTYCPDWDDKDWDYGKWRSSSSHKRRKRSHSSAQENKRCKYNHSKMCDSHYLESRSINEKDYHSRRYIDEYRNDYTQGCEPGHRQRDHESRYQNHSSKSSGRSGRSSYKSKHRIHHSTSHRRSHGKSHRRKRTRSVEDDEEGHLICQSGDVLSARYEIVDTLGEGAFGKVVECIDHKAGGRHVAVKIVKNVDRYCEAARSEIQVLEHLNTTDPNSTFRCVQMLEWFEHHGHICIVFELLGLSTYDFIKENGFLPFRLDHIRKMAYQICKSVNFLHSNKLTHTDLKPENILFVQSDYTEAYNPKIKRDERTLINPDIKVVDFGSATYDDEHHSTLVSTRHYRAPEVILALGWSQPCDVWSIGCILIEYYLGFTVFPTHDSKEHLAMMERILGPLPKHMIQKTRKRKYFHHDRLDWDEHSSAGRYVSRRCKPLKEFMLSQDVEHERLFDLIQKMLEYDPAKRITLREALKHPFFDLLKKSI
Chain of NLK (human) (Q9UBE8 whole entry, looked up): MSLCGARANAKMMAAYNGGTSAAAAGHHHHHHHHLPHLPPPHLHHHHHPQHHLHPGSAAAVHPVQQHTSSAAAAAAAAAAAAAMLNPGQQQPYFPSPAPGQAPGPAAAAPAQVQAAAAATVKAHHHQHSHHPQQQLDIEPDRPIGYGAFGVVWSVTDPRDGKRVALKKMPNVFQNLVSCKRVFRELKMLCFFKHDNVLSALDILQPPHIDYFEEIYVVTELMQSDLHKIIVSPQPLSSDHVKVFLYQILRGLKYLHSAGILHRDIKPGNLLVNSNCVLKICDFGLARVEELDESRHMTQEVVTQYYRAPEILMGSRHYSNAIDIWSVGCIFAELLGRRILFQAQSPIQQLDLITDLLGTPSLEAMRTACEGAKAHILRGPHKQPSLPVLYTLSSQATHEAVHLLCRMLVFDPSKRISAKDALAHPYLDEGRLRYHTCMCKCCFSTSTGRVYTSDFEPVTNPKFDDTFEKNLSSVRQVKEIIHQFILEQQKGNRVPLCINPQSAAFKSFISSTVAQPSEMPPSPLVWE
Chain of YES1 (human) (P07947 whole entry, looked up): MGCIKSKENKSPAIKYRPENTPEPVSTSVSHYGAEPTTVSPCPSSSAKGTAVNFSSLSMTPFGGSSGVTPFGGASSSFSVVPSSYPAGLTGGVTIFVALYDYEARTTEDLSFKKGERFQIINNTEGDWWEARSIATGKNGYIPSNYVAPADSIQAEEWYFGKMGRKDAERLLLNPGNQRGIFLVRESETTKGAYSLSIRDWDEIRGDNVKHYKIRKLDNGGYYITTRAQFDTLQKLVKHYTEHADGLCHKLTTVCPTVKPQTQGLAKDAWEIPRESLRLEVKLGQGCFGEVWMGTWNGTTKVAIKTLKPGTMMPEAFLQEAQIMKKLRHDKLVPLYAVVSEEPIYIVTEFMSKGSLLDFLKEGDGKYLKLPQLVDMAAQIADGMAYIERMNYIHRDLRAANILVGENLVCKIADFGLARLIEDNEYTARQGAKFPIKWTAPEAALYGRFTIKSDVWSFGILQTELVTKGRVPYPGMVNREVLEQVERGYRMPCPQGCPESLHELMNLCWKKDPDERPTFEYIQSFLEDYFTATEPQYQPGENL
Chain of NTRK2 (human) (Q16620 whole entry, looked up): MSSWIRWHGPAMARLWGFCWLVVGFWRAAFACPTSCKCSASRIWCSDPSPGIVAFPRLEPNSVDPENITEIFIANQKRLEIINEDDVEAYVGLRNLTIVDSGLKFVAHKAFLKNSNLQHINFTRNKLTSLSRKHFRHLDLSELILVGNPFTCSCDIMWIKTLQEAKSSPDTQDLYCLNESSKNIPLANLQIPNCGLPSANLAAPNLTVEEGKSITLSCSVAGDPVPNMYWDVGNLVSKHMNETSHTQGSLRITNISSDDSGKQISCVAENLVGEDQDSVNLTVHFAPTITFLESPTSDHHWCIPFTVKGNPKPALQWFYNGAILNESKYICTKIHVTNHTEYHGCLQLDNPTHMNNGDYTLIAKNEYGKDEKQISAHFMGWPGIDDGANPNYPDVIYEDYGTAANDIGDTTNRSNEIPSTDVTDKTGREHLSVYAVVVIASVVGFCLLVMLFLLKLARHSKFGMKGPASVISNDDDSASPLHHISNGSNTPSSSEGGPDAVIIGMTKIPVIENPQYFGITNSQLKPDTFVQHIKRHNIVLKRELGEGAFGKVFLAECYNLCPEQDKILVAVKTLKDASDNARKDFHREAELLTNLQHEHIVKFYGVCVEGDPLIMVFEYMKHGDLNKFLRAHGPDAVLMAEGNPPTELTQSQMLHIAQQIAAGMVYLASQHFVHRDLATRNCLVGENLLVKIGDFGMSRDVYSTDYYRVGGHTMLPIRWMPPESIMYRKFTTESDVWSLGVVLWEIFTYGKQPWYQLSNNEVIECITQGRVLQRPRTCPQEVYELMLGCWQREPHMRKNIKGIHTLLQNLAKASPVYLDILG
Chain of AURKB (human) (Q96GD4 whole entry, looked up): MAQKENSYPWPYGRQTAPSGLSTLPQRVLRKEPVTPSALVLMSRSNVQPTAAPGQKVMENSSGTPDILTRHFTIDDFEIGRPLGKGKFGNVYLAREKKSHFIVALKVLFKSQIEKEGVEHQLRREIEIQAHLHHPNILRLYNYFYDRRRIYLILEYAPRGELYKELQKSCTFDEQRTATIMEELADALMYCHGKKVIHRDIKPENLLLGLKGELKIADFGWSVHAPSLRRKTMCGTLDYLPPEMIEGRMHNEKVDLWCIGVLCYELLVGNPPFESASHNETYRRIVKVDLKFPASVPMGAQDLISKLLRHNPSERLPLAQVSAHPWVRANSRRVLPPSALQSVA

## O=C(Nc1cccc(Nc2nccc(Nc3cccc(C(F)(F)F)c3)n2)c1)C1CC1
MAP3K14 (human)
  residual activity: 109%
WNK2 (human)
  residual activity: 122%
HIPK4 (human)
  residual activity: 111%
CDK9 CCNK (human)
  residual activity: 107%
AURKB (human)
  residual activity: 72.8%
TEK (human)
  residual activity: 101%
STK33 (human)
  residual activity: 81.5%
STK4 (human)
  residual activity: 83.1%
FLT3 (human)
  residual activity: 73.1%
PLK2 (human)
  residual activity: 99.5%
TXK (human)
  residual activity: 90.2%
HIPK2 (human)
  residual activity: 103%
NTRK2 (human)
  residual activity: 71.6%
DAPK1 (human)
  residual activity: 83.5%
FLT1 (human)
  residual activity: 97%
GSG2 (human)
  residual activity: 101%
MAPKAPK2 (human)
  residual activity: 102%
CDK9 CCNT1 (human)
  residual activity: 86.8%
NLK (human)
  residual activity: 101%
SRPK2 (human)
  residual activity: 104%
SGK3 (human)
  residual activity: 111%
CSNK1E (human)
  residual activity: 110%
AXL (human)
  residual activity: 104%
PAK1 (human)
  residual activity: 89.5%
PTK2B (human)
  residual activity: 90.9%
SYK (human)
  residual activity: 101%
CAMK1G (human)
  residual activity: 98.8%
ZAP70 (human)
  residual activity: 126%
CLK1 (human)
  residual activity: 102%
MAP3K5 (human)
  residual activity: 111%
TAOK3 (human)
  residual activity: 110%
[1]
  residual activity: 42.5%
PLK3 (human)
  residual activity: 90.2%
MAP3K3 (human)
  residual activity: 97.9%
YES1 (human)
  residual activity: 78.9%
IGF1R (human)
  residual activity: 95.7%
MAP3K9 (human)
  residual activity: 95.2%
PRKCE (human)
  residual activity: 106%
ITK (human)
  residual activity: 101%
RPS6KB2 (human)
  residual activity: 96%

## Cc1ccc(S(=O)(=O)/C=C/C#N)cc1
MAP3K14 (human)
  residual activity: 103%
WNK2 (human)
  residual activity: 124%
HIPK4 (human)
  residual activity: 108%
CDK9 CCNK (human)
  residual activity: 112%
AURKB (human)
  residual activity: 92.3%
TEK (human)
  residual activity: 101%
STK33 (human)
  residual activity: 87.1%
STK4 (human)
  residual activity: 94.7%
FLT3 (human)
  residual activity: 100%
PLK2 (human)
  residual activity: 103%
TXK (human)
  residual activity: 103%
HIPK2 (human)
  residual activity: 83.9%
NTRK2 (human)
  residual activity: 98.5%
DAPK1 (human)
  residual activity: 100%
FLT1 (human)
  residual activity: 92.8%
GSG2 (human)
  residual activity: 101%
MAPKAPK2 (human)
  residual activity: 93.7%
CDK9 CCNT1 (human)
  residual activity: 98.2%
NLK (human)
  residual activity: 99.2%
SRPK2 (human)
  residual activity: 108%
SGK3 (human)
  residual activity: 108%
CSNK1E (human)
  residual activity: 107%
PAK1 (human)
  residual activity: 89.5%
PTK2B (human)
  residual activity: 92.8%
SYK (human)
  residual activity: 105%
CAMK1G (human)
  residual activity: 99.9%
ZAP70 (human)
  residual activity: 97.5%
CLK1 (human)
  residual activity: 107%
MAP3K5 (human)
  residual activity: 100%
TAOK3 (human)
  residual activity: 101%
[1]
  residual activity: 82.8%
PLK3 (human)
  residual activity: 97.1%
MAP3K3 (human)
  residual activity: 98.1%
YES1 (human)
  residual activity: 94.2%
IGF1R (human)
  residual activity: 93.5%
MAP3K9 (human)
  residual activity: 96.9%
PRKCE (human)
  residual activity: 106%
ITK (human)
  residual activity: 102%
RPS6KB2 (human)
  residual activity: 109%

Source: the kinase profiling compilation of Christmann-Franck et al. (2016)
